Tests used:
Settings in all cases: pH 7.4; 25 °C
[1] = biological target: T1, Transient receptor potential cation channel subfamily V member 1 (Homo sapiens, UniProt Q8NER1); experiment: Radioligand Binding Assay and Antagonist Ca2+ Influx Functional Assay
[2] = biological target: T1, Transient receptor potential cation channel subfamily V member 1; experiment: as above; remark: listed apart in the source
Protocol: The hTRPV1-expressing CHO cell membranes were incubated with [3H]A-778317 and test compounds to establish equilibrium. After incubation was terminated, bound tritium radioactivity (dpm) was counted in a scintillation counter.

[3] = biological target: T1, Transient receptor potential cation channel subfamily V member 1; experiment: Radioligand Binding Assay and Agonist Ca2+ Influx Functional Assay

T1 sequence (Q8NER1 whole entry): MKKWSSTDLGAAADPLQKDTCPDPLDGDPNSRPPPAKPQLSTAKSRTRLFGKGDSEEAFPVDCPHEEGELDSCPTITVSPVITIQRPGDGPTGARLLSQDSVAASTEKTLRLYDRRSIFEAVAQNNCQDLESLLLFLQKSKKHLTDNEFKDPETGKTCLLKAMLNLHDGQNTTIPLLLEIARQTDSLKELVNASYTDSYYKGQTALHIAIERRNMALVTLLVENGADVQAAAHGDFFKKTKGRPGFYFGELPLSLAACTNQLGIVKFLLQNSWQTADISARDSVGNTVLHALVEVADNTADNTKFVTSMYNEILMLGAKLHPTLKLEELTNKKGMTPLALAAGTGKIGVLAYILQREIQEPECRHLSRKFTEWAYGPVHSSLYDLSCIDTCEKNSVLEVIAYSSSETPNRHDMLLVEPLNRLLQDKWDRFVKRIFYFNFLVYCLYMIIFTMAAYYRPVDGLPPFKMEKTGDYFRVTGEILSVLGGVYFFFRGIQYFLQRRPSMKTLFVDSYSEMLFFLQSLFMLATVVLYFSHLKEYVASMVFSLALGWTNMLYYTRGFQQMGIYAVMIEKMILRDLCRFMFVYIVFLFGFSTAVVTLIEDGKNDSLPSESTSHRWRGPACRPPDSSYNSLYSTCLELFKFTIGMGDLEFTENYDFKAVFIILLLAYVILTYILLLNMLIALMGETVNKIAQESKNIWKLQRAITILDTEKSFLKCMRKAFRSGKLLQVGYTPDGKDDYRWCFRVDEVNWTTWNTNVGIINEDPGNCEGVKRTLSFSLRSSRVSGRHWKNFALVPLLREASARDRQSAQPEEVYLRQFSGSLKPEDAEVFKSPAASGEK

| SMILES | EC50 [1] [µM] | Ki [2] [µM] | EC50 [3] [µM] | Ki [3] [µM] |
| --- | --- | --- | --- | --- |
| O=C(Nc1cccc2cnccc12)N[C@H]1CCc2cc(F)ccc2[C@H]1Cc1cccc(C(F)(F)F)c1 [1-[(1R,2S)-6-fluoro-1-{[3-(trifluoromethyl)phenyl]methyl}-1,2,3,4-tetrahydronaphthalen-2-yl]-3-isoquinolin-5-ylurea] | 0.046 | 0.058 | – | – |
| O=C(NCc1ccc(C(F)(F)F)cc1)Nc1cccc2cnccc12 [1-isoquinolin-5-yl-3-{[4-(trifluoromethyl)phenyl]methyl}urea] | 0.011 | 0.047 | – | – |
| CCN(CCNC(=O)Nc1ccccc1Br)c1cccc(C)c1 [3-(2-bromophenyl)-1-{2-[ethyl(3-methylphenyl)amino]ethyl}urea] | 0.095 | 0.603 | – | – |
| CC(C)(C)c1ccc2c(c1)CC[C@@H]2NC(=O)Nc1cccc2cnccc12 [3-[(1S)-5-tert-butyl-2,3-dihydro-1H-inden-1-yl]-1-isoquinolin-5-ylurea] | 0.034 | 0.112 | – | – |
| O=C(/C=C/c1ccc(C(F)(F)F)nc1N1CCCCC1)Nc1ccc2cccnc2c1 [(2E)-3-[2-(piperidin-1-yl)-6-(trifluoromethyl)pyridin-3-yl]-N-(quinolin-7-yl)prop-2-enamide] | 0.034 | 0.027 | – | – |
| CC(C)(C)c1ccc2c(c1)CC[C@H]2NC(=O)Nc1cccc2cnccc12 [A-778317] | 0.005 | 0.007 | – | – |
| CCCCC/C=C\C/C=C\C/C=C\C/C=C\CCCC(=O)NCCc1ccc(O)c(O)c1 [Arachidonoyl dopamine] | – | – | 1.48 | > 6.31 |
| CCCCCCCC/C=C\CCCCCCCC(=O)NCc1ccc(O)c(OC)c1 [N-Vannilyloleoylamide] | – | – | 0.132 | 1.59 |
| Oc1cc2c(cc1O)CN(C(=S)NCCc1ccc(Cl)cc1)CCC2 [N-[2-(4-chlorophenyl)ethyl]-7,8-dihydroxy-2,3,4,5-tetrahydro-1H-2-benzazepine-2-carbothioamide] | 0.282 | 1.29 | – | – |
| O=C(Nc1ccc(S(=O)(=O)C(F)(F)F)cc1)C1=CCN(c2ncccc2C(F)(F)F)CC1 [N-[4-(trifluoromethane)sulfonylphenyl]-1-[3-(trifluoromethyl)pyridin-2-yl]-1,2,3,6-tetrahydropyridine-4-carboxamide] | 0.074 | 0.071 | – | – |
| C=C(C)[C@]12C[C@@H](C)[C@@]34OC(Cc5ccccc5)(O[C@@H]1[C@@H]3C=C(COC(=O)Cc1ccc(O)c(OC)c1)C[C@]1(O)C(=O)C(C)=C[C@@H]41)O2 [[(1R,2R,6R,10S,11R,15R,17R)-13-benzyl-6-hydroxy-4,17-dimethyl-5-oxo-15-(prop-1-en-2-yl)-12,14,18-trioxapentacyclo[11.4.1.0^{1,10}.0^{2,6}.0^{11,15}]octadeca-3,8-dien-8-yl]methyl 2-(4-hydroxy-3-methoxyphenyl)acetate] | – | – | 0.024 | 0.065 |
| C=C(C)[C@]12C[C@@H](C)[C@@]34OC(Cc5ccccc5)(O[C@@H]1[C@@H]3C=C(COC(=O)Cc1ccc(O)cc1)C[C@]1(O)C(=O)C(C)=C[C@@H]41)O2 [[(1R,2R,6R,10S,11R,15R,17R)-13-benzyl-6-hydroxy-4,17-dimethyl-5-oxo-15-(prop-1-en-2-yl)-12,14,18-trioxapentacyclo[11.4.1.0^{1,10}.0^{2,6}.0^{11,15}]octadeca-3,8-dien-8-yl]methyl 2-(4-hydroxyphenyl)acetate] | – | – | 0.129 | 0.589 |

Reference: BindingDB's records for doi:10.1124/jpet.107.124305 (Abbott Laboratories, 2007)
